Measurements as given in patent publication USRE47388E1, “Agents for alleviating side effects” (TAIHO PHARMACEUTICAL CO., LTD., priority 1999, dated 2019).
Where a name gives a salt, the structure may show the parent alone. Marks after values point to notes of the source that are not given here. One block for each compound: values may come before it.

Columns and labels:
[1] = Test 3: suppression of body weight increase in tumor-bearing rats; assay type: in vivo, Donryu male rats; conditions: for Suppression of body weight (in words): CDDP alone 6 mg/kg, Compound 1 for seven consecutive days with CDDP; for Body weight change: day 0 to day 8; for Weight change ratio (%): ratio of suppression of body weight increase vs control
Protocol: CDDP was suspended in saline so as to obtain a 0.6 mg/ml suspension, and the suspension was stirred by use of a stirrer for about 20 minutes at room temperature. The suspension was subjected to sonication for 5 minutes while being cooled with ice to thereby obtain a test solution containing CDDP for administration at 6.0 mg/kg/day.
Compound 1 was suspended in 0.5% HPMC so as to obtain a 3 mg/ml suspension, 10 mg/ml suspension, and 30 mg/ml suspension, respectively, and each suspension was stirred by use of a stirrer for about 20 minutes at room temperature. Each suspension was subjected to sonication for 5 minutes while being cooled with ice to thereby obtain test solutions containing Compound 1 for administration at 30 mg/kg/day, 100 mg/kg/day, and 300 mg/kg/day, respectively.
Five-week-old Donryu male rats were divided into a control group and treatment groups so that the average body weights of the groups and the standard deviations (S.D.) of the groups were made to be as close to one another as possible. Yoshida sarcoma (2×10^4 cells/0.1 ml/rat) was subcutaneously transplanted on the back of each rat, and administration was started the day following the day of transplant. To each rat of the CDDP treatment alone groups, the CDDP solution of 6.0 mg/kg was intravenously administered on the first administration day, and a 0.5% HPMC solution was orally administered for seven consecutive days at a daily dose of 1.0 ml per 100 g of body weight. […] To each rat of the control group, saline was intravenously administered on the first administration day in a dose of 1.0 ml per 100 g of body weight. Simultaneously, a 0.5% HPMC solution was orally administered once a day for five consecutive days at a daily dose of 1.0 ml per 100 g of body weight. In order to observe the action of Compound 1 per se, Compound-1-administration alone groups were provided for administration at 30 mg/kg/day, 100 mg/kg/day, and 300 mg/kg/day, respectively.
The rats were weighed on the day of transplantation (day 0) and the day following the day of final administration (day 8), and the suppression ratio of body weight increase was calculated by use of the following equation. Ratio of suppression of body weight increase (%)=(1−body weight changes of one treatment group/body weight changes of the control group)×100

[2] = system: Yoshida sarcoma; assay: Test 3: action on anti-tumor action of cancer drug (tumor weight); assay type: in vivo, Donryu male rats; conditions: for Tumor weight: day 8; for Anti-tumor action / inhibition of tumor weight (in words): CDDP alone 6 mg/kg, Compound 1 for seven consecutive days with CDDP; for Inhibition ratio (%): tumor shrinkage vs control
[3] = Test 2: delaying effect on diarrhea occurrence caused by CPT-11; assay type: in vivo, Donryu male rats; conditions: CPT-11 60 mg/kg/day i.v. every day for five days; Compound 1 30 mg/kg/day oral concomitantly
Protocol: Irinotecan hydrochloride (hereinafter referred to as “CPT-11”; KAMPTO Injection 100 mg/5 ml; product of Yakult Co., Ltd.) was diluted with saline so as to obtain a 6 mg/ml solution for administration at 60 mg/kg/day.
Compound 1 was suspended in a 0.5% hydroxypropylmethyl cellulose solution (hereinafter referred to as “0.5% HPMC”) so as to obtain a 3 mg/ml suspension, and the suspension was stirred by use of a stirrer for about 20 minutes at room temperature. The suspension was subjected to ultrasound treatment for 5 minutes while being cooled with ice, to thereby obtain a test solution containing Compound 1 for administration at 30 mg/kg/day.
Five-week-old Donryu male rats were divided into a control group and treatment groups so that the average body weights of the groups and the standard deviations (S.D.) of the groups were made to be as close to one another as possible. To each rat of the anti-tumor-agent treatment alone groups, the CPT-11 solution was intravenously administered once a day for five consecutive days at a daily dose of 1.0 ml per 100 g of body weight. […] The number of rats which had diarrhea at least once during the test period were counted as “diarrhea-rats”. The accumulated occurrence of diarrhea was calculated by use of the following equation: accumulated occurrence of diarrhea (%)=(the number of rats which had diarrhea/the total number of rats)×100

[4] = system: IL-6; assay: Test 4: IL-6 level in the small intestine and the large intestine (ELISA); assay type: in vivo, ICR mice; conditions: for Level of inflammatory cytokine IL-6 in the small intestine and the large intestine (in words): FTD 200 mg/kg/day eight consecutive days vs control, Compound 1 94 mg/kg incorporated; for Large intestine IL-6 / Small intestine IL-6: day 9, oral, eight days, FTD 200 mg/kg/day, Compound 1 94 mg/kg/day in the mixture, alone 100 mg/kg/day
Protocol: (§1) To each rat of the control group, a 0.5% HPMC solution was perorally administered for eight consecutive days. In order to observe the action of Compound 1 per se, Compound 1-administration alone groups were provided for administration of 100 mg/kg/day. […] Immediately after the collected region were washed with saline, the portions were frozen to preserve at −80° C. Each sample preparation was diluted with a 0.05M phosphate buffer (pH 7.4) so as to attain a tissue concentration of approximately 10% (W/V), and the resultant mixture was homogenized, subjected to sonication, and subjected twice to freeze-thawing. The thus-treated matter was centrifuged at 12,000 g for 15 minutes, and the supernatant was collected to serve as a sample for cytokine measurement. Cytokines, i.e., IL-1β and mouse IL-6 were measured by use of an ELISA kit for mouse (product of Endogen, Inc.), and the results are shown in Table 4. Test results were statistically analyzed in accordance with the Dunnett method ((*; p<0.05) and (**; p<0.01)).

[5] = system: IL-1β; assay: Test 4: IL-1β level in the large intestine (ELISA); assay type: in vivo, ICR mice; conditions: for Level of IL-1β in the large intestine (in words): FTD 200 mg/kg/day eight consecutive days vs control, Compound 1 94 mg/kg incorporated; for Large intestine IL-1β: day 9, oral, eight days, FTD 200 mg/kg/day, Compound 1 94 mg/kg/day in the mixture, alone 100 mg/kg/day
Protocol: as §1

[6] = Test 1: alleviating effect on suppression of body weight increase caused by 5-FU or CDDP
Protocol: 5-Fluorouracil (hereinafter referred to as “5-FU”) was suspended in saline so as to obtain a 2.0 mg/ml suspension, and the suspension was stirred by use of a stirrer for about 20 minutes at room temperature. The suspension was treated with sonication for 5 minutes while being cooled with ice, to thereby obtain a test solution containing 5-FU for administration at 20 mg/kg/day.
Cisplatin (hereinafter referred to as “CDDP”) was suspended in saline so as to obtain a 0.1 mg/ml suspension, and the suspension was stirred by use of a stirrer for about 20 minutes at room temperature. The suspension was treated with sonication for 5 minutes while being cooled with ice, to thereby obtain a test solution containing CDDP for administration at 1.0 mg/kg/day.
Compound 1 was suspended in water so as to obtain a 10 mg/ml suspension, and the suspension was stirred by use of a stirrer for about 20 minutes at room temperature. The suspension was treated with sonication for 5 minutes while being cooled with ice, to thereby obtain a test solution containing Compound 1 for administration at 100 mg/kg/day.
Five-week-old Donryu male rats were divided into a control group and treatment groups so that the average body weights of the groups and the standard deviations (S.D.) of the groups were made to be as close to one another as possible. To each rat of the anti-tumor-agent treatment alone groups, the 5-FU solution or the CDDP solution was intravenously administered once a day for four consecutive days at a daily dose of 1.0 ml per 100 g of body weight. Simultaneously, water was orally administered once a day for four consecutive days at a daily dose of 1.0 ml per 100 g of body weight. To each rat of the combination-administration treatment groups, the 5-FU solution or the CDDP solution was intravenously administered once a day for four consecutive days at a daily dose of 1.0 ml per 100 g of body weight. Simultaneously, to each rat of the combination-administration groups, the solution of Compound 1 was orally administered once a day for four consecutive days at a daily dose of 1.0 ml per 100 g of body weight. To each rat of the control group, saline was intravenously administered once a day for four consecutive days at a daily dose of 1.0 ml per 100 g of body weight. Simultaneously, water was orally administered once a day for four consecutive days at a daily dose of 1.0 ml per 100 g of body weight.
The rats were weighed prior to initiation of administration (day 1) and on the day following the day of final administration (day 5), and the ratio of suppression of body weight increase was calculated by use of the following equation.
Test results were statistically analyzed using the Student's “T” test. […]

[7] = Test 4: measurement of body weight change after FTD; assay type: in vivo, ICR mice; conditions: for Weight change ratio (%): body weight changes/body weight before administration x100, eight days, alone 100 mg/kg/day; for Weight change ratio (%) / Body weight change: oral, FTD 200 mg/kg/day, Compound 1 94 mg/kg/day in the mixture; for Body weight change: day 0 to day 9, eight consecutive days, Compound 1 alone 100 mg/kg/day
Protocol: 5-Trifluoromethyl-2′-deoxyuridine (hereinafter abbreviated as FTD) was suspended in a 0.5% HPMC solution so as to obtain a 20 mg/ml suspension, and the suspension was stirred by use of a stirrer for about 20 minutes at room temperature.
FTD was suspended in a 0.5% HPMC solution so as to obtain a 20 mg/ml suspension. To the suspension, Compound 1 was added so as to attain a concentration of 9.4 mg/ml. The resultant mixture was stirred by use of a stirrer for about 20 minutes at room temperature, and then subjected to sonication under ice cooling, to thereby obtain a test solution containing FTD and Compound 1 (mol ratio 1:0.5).
Compound 1 was suspended in a 0.5% HPMC solution so as to obtain a 10 mg/ml suspension, and the suspension was stirred by use of a stirrer for about 20 minutes at room temperature. The suspension was subjected to sonication for 5 minutes under ice cooling, to thereby obtain a test solution containing Compound 1 for administration of 100 mg/kg/day.
Eight-week-old male ICR rats were divided into a control group and treatment groups so that the average body weights of the groups and the standard deviations (S.D.) of the groups were made to be as close to one another as possible. To each rat of the FTD treatment alone groups, the FTD solution of 200 mg/kg/day (1.0 ml) was orally administered once a day for eight consecutive days (per 100 g body weight of each rat). To each rat of combination-administration treatment groups, a mixture solution of FTD and Compound 1 was perorally administered once a day for eight consecutive days at a daily dose of 1.0 ml per 100 g of body weight. To each rat of the control group, a 0.5% HPMC solution was perorally administered for eight consecutive days. In order to observe the action of Compound 1 per se, Compound 1-administration alone groups were provided for administration of 100 mg/kg/day.
The rats were weighed at the previous day of the first administration (day 0) and the following day of the day of final administration (day 9), and the ratio of body weight ratio was calculated by use of the following equation. Ratio of body weight change (%)=body weight changes/body weight before administration×100

[8] = CDDP 6.0 mg/kg i.v. on first day + vehicle oral 7 days
[9] = Compound 1 30 mg/kg/day oral 7 days, with CDDP 6.0 mg/kg i.v. day 1 or saline
[10] = Compound 1 100 mg/kg/day oral 7 days, with CDDP 6.0 mg/kg i.v. day 1 or saline
[11] = Compound 1 300 mg/kg/day oral 7 days, with CDDP 6.0 mg/kg i.v. day 1 or saline

Suppression of body weight (in words) [1]: Significant inhibition
Weight change ratio (%) [1, 8]: 174.9%
Compound: [NH2][Pt]([NH2])([Cl])[Cl] [CDDP, Cisplatin, reference compound]
Body weight change [1, 8]: -19.4 ± 8.6 g
Tumor weight ([2]; CDDP 6.0 mg/kg i.v. on first day + 0.5% HPMC vehicle oral 7 days): 0.162 ± 0.155 g
Anti-tumor action / inhibition of tumor weight (in words) [2]: Significant inhibition of tumor weight
Inhibition ratio (%) [2, 8]: 75.7%

Suppression ratio (%) (ratio of suppression of body weight increase) ([6]; vs control group, 5-FU 20 mg/kg/day or CDDP 1.0 mg/kg/day i.v., Compound 1 100 mg/kg/day oral, four consecutive days): 46.7%
Compound: O=c1[nH]cc(F)c(=O)[nH]1 [Compound 5-FU, 5-Fluorouracil]
Suppression of body weight increase (in words) ([6]; 5-FU 20 mg/kg/day or CDDP 1.0 mg/kg/day for 4 consecutive days, Compound 1 100 mg/kg/day in combination with the anti-tumor agent): Suppression of body weight increase was confirmed
Body weight change ([6]; day 1 to day 5, 5-FU 20 mg/kg/day or CDDP 1.0 mg/kg/day i.v., Compound 1 100 mg/kg/day oral, four consecutive days, mean ± S.D.): 15.6 ± 3.6 g

Continued, compound first:

Compound: CCc1c2c(nc3ccc(OC(=O)N4CCC(N5CCCCC5)CC4)cc13)-c1cc3c(c(=O)n1C2)COC(=O)[C@]3(O)CC [CPT-11, Irinotecan hydrochloride, reference compound]
Accumulated occurrence of diarrhea (FIG. 1, in words) [3]: diarrhea occurred after the third administration day

Compound: Cl.N=C1CCCN1Cc1[nH]c(=O)[nH]c(=O)c1Cl [Compound 1, 5-Chloro-6-(2-iminopyrrolidin-1-yl)methyl-2,4-(1H,3H)-pyrimidinedione Hydrochloride]
Level of inflammatory cytokine IL-6 in the small intestine and the large intestine (in words) [4]: inhibited
Large intestine IL-6 [4]: 10.7 ± 4.7 pg/mg protein
Small intestine IL-6 [4]: 19.8 ± 9.9 pg/mg protein
Suppression of body weight (in words) [1]: suppression of body weight was alleviated
Body weight change [1, 9]: 29.3 ± 10.2 g
Body weight change [1, 10]: 23.9 ± 6.6 g
Body weight change [1, 11]: 28.1 ± 6.0 g
Weight change ratio (%) [1, 9]: −13.1%
Weight change ratio (%) [1, 10]: 7.7%
Weight change ratio (%) [1, 11]: −8.5%
Anti-tumor action / inhibition of tumor weight (in words) [2]: without affecting the anti-tumor action
Tumor weight [2, 9]: 0.787 ± 0.307 g
Tumor weight [2, 10]: 0.816 ± 0.329 g
Tumor weight [2, 11]: 0.829 ± 0.281 g
Inhibition ratio (%) [2, 9]: −18.1%
Inhibition ratio (%) [2, 10]: −22.4%
Inhibition ratio (%) [2, 11]: −24.5%
Level of IL-1β in the large intestine (in words) [5]: inhibited
Large intestine IL-1β [5]: 23.7 ± 4.6 pg/mg protein
Occurrence of diarrhea, combination-administration groups vs anti-tumor-agent-administration alone groups ([6]; Compound 1 100 mg/kg/day with 5-FU 20 mg/kg/day or CDDP 1.0 mg/kg/day): lower
Accumulated occurrence of diarrhea (FIG. 1, in words) [3]: delayed
Decrease in the body weight caused by FTD (in words) ([7]; Compound 1 94 mg/kg/day incorporated with FTD 200 mg/kg/day): protected
Weight change ratio (%) [7]: 6.8%
Body weight change [7]: 2.4 ± 1.1 g

Compound: O=c1[nH]c(=O)n([C@H]2C[C@H](O)[C@@H](CO)O2)cc1C(F)(F)F [FTD, 5-Trifluoromethyl-2′-deoxyuridine, reference compound]
Level of inflammatory cytokine IL-6 in the small intestine and the large intestine (in words) [4]: high level
Large intestine IL-6 [4]: 118.0 ± 47.6** pg/mg protein
Small intestine IL-6 [4]: 95.5 ± 19.2** pg/mg protein
Level of IL-1β in the large intestine (in words) [5]: elevated
Large intestine IL-1β [5]: 77.3 ± 42.1** pg/mg protein
Weight change ratio (%) [7]: −17.6%
Body weight change [7]: -1.6 ± 4.7 g
Decrease ratio of the body weight at the following day of the final administration to that before administration ([7]; solo FTD 200 mg/kg daily for eight consecutive days): approximately 18%
